From the NIST ThermoML archive (doi:10.1016/j.fluid.2016.10.026)

Settings: for mass density / kinematic viscosity / speed of sound / vapor or sublimation pressure: Liquid; for mass density: Vibrating tube method; for surface tension liquid-gas: Drop volume; for kinematic viscosity: Capillary tube (Ostwald / Ubbelohde) method; for speed of sound: Frequency=3 MHz, Sing-around technique in a fixed-path interferometer; for vapor or sublimation pressure: Ebulliometric method (Recirculating still)

CC(=O)c1cccs1 [2-acetylthiophene]
Settings | kinematic viscosity [m2/s] | mass density [kg/m3] | speed of sound [m/s]
313.15 K, 25000 kPa | – | 1167.08 | –
313.15 K, 30000 kPa | – | 1169.85 | –
313.15 K, 35000 kPa | – | 1172.56 | –
313.15 K, 40000 kPa | – | 1175.19 | –
313.15 K, 45000 kPa | – | 1177.74 | –
313.15 K, 50000 kPa | – | 1180.24 | –
313.15 K, 55000 kPa | – | 1182.67 | –
313.15 K, 60000 kPa | – | 1185.04 | –
313.15 K, 65000 kPa | – | 1187.36 | –
315.65 K, 101 kPa | 1.58e-06 | 1149.57 | 1409
318.15 K, 100 kPa | – | 1147.15 | –
318.15 K, 101 kPa | 1.51e-06 | 1147.18 | 1400.3
318.15 K, 2000 kPa | – | 1148.56 | –
318.15 K, 5000 kPa | – | 1150.49 | –
318.15 K, 7000 kPa | – | 1151.77 | –
318.15 K, 10000 kPa | – | 1153.65 | –
318.15 K, 15000 kPa | – | 1156.74 | –
318.15 K, 20000 kPa | – | 1159.72 | –
318.15 K, 25000 kPa | – | 1162.64 | –
318.15 K, 30000 kPa | – | 1165.47 | –
318.15 K, 35000 kPa | – | 1168.21 | –
318.15 K, 40000 kPa | – | 1170.9 | –
318.15 K, 45000 kPa | – | 1173.5 | –
318.15 K, 50000 kPa | – | 1176.04 | –
318.15 K, 55000 kPa | – | 1178.53 | –
318.15 K, 60000 kPa | – | 1180.93 | –
318.15 K, 65000 kPa | – | 1183.29 | –
320.65 K, 101 kPa | 1.45e-06 | 1144.79 | 1391.8
323.15 K, 100 kPa | – | 1142.34 | –
323.15 K, 101 kPa | 1.39e-06 | 1142.39 | 1383.4
323.15 K, 2000 kPa | – | 1143.79 | –
323.15 K, 5000 kPa | – | 1145.78 | –
323.15 K, 7000 kPa | – | 1147.09 | –
323.15 K, 10000 kPa | – | 1149.02 | –
323.15 K, 15000 kPa | – | 1152.17 | –
323.15 K, 20000 kPa | – | 1155.23 | –
323.15 K, 25000 kPa | – | 1158.22 | –
323.15 K, 30000 kPa | – | 1161.08 | –
323.15 K, 35000 kPa | – | 1163.89 | –
323.15 K, 40000 kPa | – | 1166.63 | –
323.15 K, 45000 kPa | – | 1169.28 | –
323.15 K, 50000 kPa | – | 1171.88 | –
323.15 K, 55000 kPa | – | 1174.4 | –
323.15 K, 60000 kPa | – | 1176.86 | –
323.15 K, 65000 kPa | – | 1179.25 | –
325.65 K, 101 kPa | 1.34e-06 | 1140 | 1375
328.15 K, 100 kPa | – | 1137.56 | –
328.15 K, 101 kPa | 1.29e-06 | 1137.61 | 1366.5
328.15 K, 2000 kPa | – | 1139.02 | –
328.15 K, 5000 kPa | – | 1141.06 | –
328.15 K, 7000 kPa | – | 1142.39 | –
328.15 K, 10000 kPa | – | 1144.38 | –
328.15 K, 15000 kPa | – | 1147.6 | –
328.15 K, 20000 kPa | – | 1150.78 | –
328.15 K, 25000 kPa | – | 1153.79 | –
328.15 K, 30000 kPa | – | 1156.77 | –
328.15 K, 35000 kPa | – | 1159.56 | –
328.15 K, 40000 kPa | – | 1162.34 | –
328.15 K, 45000 kPa | – | 1165.07 | –
328.15 K, 50000 kPa | – | 1167.69 | –
328.15 K, 55000 kPa | – | 1170.28 | –
328.15 K, 60000 kPa | – | 1172.79 | –
328.15 K, 65000 kPa | – | 1175.21 | –
330.65 K, 101 kPa | 1.24e-06 | 1135.21 | 1358.1
333.15 K, 100 kPa | – | 1132.76 | –
333.15 K, 101 kPa | 1.2e-06 | 1132.81 | 1349.5
333.15 K, 2000 kPa | – | 1134.24 | –
333.15 K, 5000 kPa | – | 1136.33 | –
333.15 K, 7000 kPa | – | 1137.7 | –
333.15 K, 10000 kPa | – | 1139.72 | –
333.15 K, 15000 kPa | – | 1143.11 | –
333.15 K, 20000 kPa | – | 1146.25 | –
333.15 K, 25000 kPa | – | 1149.39 | –
333.15 K, 30000 kPa | – | 1152.35 | –
333.15 K, 35000 kPa | – | 1155.23 | –
333.15 K, 40000 kPa | – | 1158.08 | –
333.15 K, 45000 kPa | – | 1160.83 | –
333.15 K, 50000 kPa | – | 1163.52 | –
333.15 K, 55000 kPa | – | 1166.14 | –
333.15 K, 60000 kPa | – | 1168.68 | –
333.15 K, 65000 kPa | – | 1171.17 | –
335.65 K, 101 kPa | 1.16e-06 | 1130.41 | 1340.8
338.15 K, 100 kPa | – | 1127.97 | –
338.15 K, 101 kPa | 1.12e-06 | 1128.01 | 1332.2
338.15 K, 2000 kPa | – | 1129.47 | –
338.15 K, 5000 kPa | – | 1131.61 | –
338.15 K, 7000 kPa | – | 1133.01 | –
338.15 K, 10000 kPa | – | 1135.08 | –
338.15 K, 15000 kPa | – | 1138.55 | –
338.15 K, 20000 kPa | – | 1141.78 | –
338.15 K, 25000 kPa | – | 1144.86 | –
338.15 K, 30000 kPa | – | 1147.94 | –
338.15 K, 35000 kPa | – | 1150.94 | –
338.15 K, 40000 kPa | – | 1153.82 | –
338.15 K, 45000 kPa | – | 1156.64 | –
338.15 K, 50000 kPa | – | 1159.38 | –
338.15 K, 55000 kPa | – | 1162.04 | –
338.15 K, 60000 kPa | – | 1164.64 | –
338.15 K, 65000 kPa | – | 1167.11 | –

Settings | surface tension liquid-gas [mN/m] | vapor or sublimation pressure [kPa]
315.65 K | 41.14 | –
318.15 K | 40.87 | –
320.65 K | 40.58 | –
323.15 K | 40.27 | –
325.65 K | 39.97 | –
328.15 K | 39.7 | –
330.65 K | 39.43 | –
333.15 K | 39.12 | –
335.65 K | 38.88 | –
336.16 K | – | 0.305
338.15 K | 38.58 | –
340.77 K | – | 0.4
342.94 K | – | 0.45
345.74 K | – | 0.54
350.41 K | – | 0.69
356.58 K | – | 0.955
362.84 K | – | 1.295
365.84 K | – | 1.545
371.37 K | – | 2.02
376.26 K | – | 2.52
383.49 K | – | 3.53
389.55 K | – | 4.545
394.16 K | – | 5.5
400.53 K | – | 7.065
407.19 K | – | 9.015
412.74 K | – | 11.05
417.12 K | – | 13.02
421.69 K | – | 15.2
423.25 K | – | 15.99
426.08 K | – | 17.63
429.93 K | – | 20.05
433.16 K | – | 22.2
435.59 K | – | 24.04
438.37 K | – | 26.19
440.66 K | – | 28.12
442.49 K | – | 29.8
445.02 K | – | 32.16
